Assay results published in patent US20080090906A1, “Use of Acetyl L-Carnitine In Combination With Propionyl L-Carnitine and Sildenafil for the Treatment of Erectile Dysfunction” (SIGMA-TAU INDUSTRIE FARMACEUTICHE RIUNITE S.P.A., priority 2004, published 2008).

Key:
[1] = system: Patients undergoing bilateral nerve-sparing radical retropubic prostatectomy (bnsrrp); assay: Randomised, double-blind placebo-controlled clinical trial: IIEF-15 scores after 4 months' treatment, bnsrrp patients; type: in vivo, human
Experimental: (§1) To assess the activity of the combination according to the invention for the treatment of erectile dysfunction, a randomised, double-blind placebo-controlled clinical trial was conducted.
(§2) The patients entered into the trial had to meet the following inclusion criteria: • erectile dysfunction secondary to radical retropubic prostatectomy, with or without bilateral sparing of the neurovascular bundles, in patients in whom the prostatectomy had been performed at least 6 months but less than 2 years prior to entry into the clinical trial; • complete erectile function prior to the prostatectomy (this information had to be confirmed by the partner or documented in the patient's hospital file; • not on medical treatment for prostate cancer; • not on treatment for erectile dysfunction before or after prostatectomy; • normal total and free prostate antigen values; • involvement in a heterosexual relationship for at least 6 months prior to surgery.
(§3) The patients recruited into the study were divided into two main groups on the basis of whether or not they had undergone bilateral nerve sparing surgery (rrp and bnsrrp).
(§4) These two groups were further subdivided into the following subsets:
(§5) c) sildenafil 100 mg+propionyl L-carnitine 2 g+acetyl L-carnitine 2 g;
(§6) d) propionyl L-carnitine 2 g;
(§7) e) acetyl L-carnitine 2 g.
(§8) f) propionyl L-carnitine 2 g+acetyl L-carnitine 2 g;
(§9) g) sildenafil 100 mg+propionyl L-carnitine 2 g;
(§10) h) sildenafil 100 mg+acetyl L-carnitine 2 g.
(§11) The carnitines (acetyl L-carnitine and propionyl L-carnitine) were administered orally twice daily (1 g×2/day).
(§12) Sildenafil was administered (as required) and taken 1-2 hours before sexual intercourse at a dose of 100 mg.
(§13) The placebo was administered in the place of acetyl L-carnitine and/or propionyl L-carnitine and/or sildenafil.
(§14) After 4 months' treatment the following variables were analysed:
(§15) 1. erectile function (evaluated by “IIEF-15” scores: IIEF=International Index of Erectile Function);
(§16) 2. satisfaction with sexual intercourse (IIEF-15);
(§17) 4. general sexual well-being (IIEF-15);

[2] = system: Patients undergoing radical retropubic prostatectomy (rrp) without bilateral sparing of the neurovascular bundles; assay: Randomised, double-blind placebo-controlled clinical trial: IIEF-15 scores after 4 months' treatment, rrp patients; type: in vivo, human; settings: rrp patients without nerve sparing
Experimental: as §1, §2, §3, §4, §5, §6, §7, §8, §9, §10, §11, §12, §13, §14, §15, §16, §17

[3] = system: Patients undergoing bilateral nerve-sparing radical retropubic prostatectomy (bnsrrp); assay: Clinical trial: recording of nocturnal penile tumescence (NPT) with RigiScan, bnsrrp patients; type: in vivo, human; settings: total duration over three nights
Experimental: as §1, §2, §3, §4, §5, §6, §7, §8, §9, §10, §11, §12, §13, §14
(§18) 5. recording of nocturnal penile tumescence (NPT) [evaluated with RigiScan (Dacomed-Minnesota). A >70% increase in rigidity compared to baseline at the base of the penis and >60% at the upper end of the penis, a >2 cm increase in circumference at the upper end of the penis and >3 cm at the base were considered “complete erection”. The total duration (minutes) of the recording period on three nights was assessed.

[4] = system: Patients undergoing radical retropubic prostatectomy (rrp) without bilateral sparing of the neurovascular bundles; assay: Clinical trial: recording of nocturnal penile tumescence (NPT) with RigiScan, rrp patients; type: in vivo, human; settings: rrp patients without nerve sparing, total duration over three nights
Experimental: as §1, §2, §3, §4, §5, §6, §7, §8, §9, §10, §11, §12, §13, §14, §18

[5] = system: patients undergoing rrp; settings: cited from earlier work
[6] = system: patients undergoing bnsrrp; settings: cited from earlier work
[7] = after therapy (4 months' treatment)

Compound	Erectile function, mean ± s.d. [1, 7]	General sexual well-being, mean ± s.d. [1, 7]	Orgasm, mean ± s.d. [1, 7]	Satisfaction with sexual intercourse, mean ± s.d. [1, 7]	Erectile function, mean ± s.d. ([1]; before therapy (baseline))	General sexual well-being, mean ± s.d. ([1]; before therapy (baseline))	Orgasm, mean ± s.d. ([1]; before therapy (baseline))	Satisfaction with sexual intercourse, mean ± s.d. ([1]; before therapy (baseline))	Erectile function, mean ± s.d. [2, 7]	General sexual well-being, mean ± s.d. [2, 7]	Orgasm, mean ± s.d. [2, 7]	Satisfaction with sexual intercourse, mean ± s.d. [2, 7]	Erectile function, mean ± s.d. ([2]; before therapy (baseline))	General sexual well-being, mean ± s.d. ([2]; before therapy (baseline))	Orgasm, mean ± s.d. ([2]; before therapy (baseline))	Satisfaction with sexual intercourse, mean ± s.d. ([2]; before therapy (baseline))	Recording of nocturnal penile tumescence (NPT), mean ± s.d. [3, 7]	Recording of nocturnal penile tumescence (NPT), mean ± s.d. ([3]; before therapy (baseline))	Recording of nocturnal penile tumescence (NPT), mean ± s.d. [4, 7]	Recording of nocturnal penile tumescence (NPT), mean ± s.d. ([4]; before therapy (baseline))	also measured
CC(=O)O[C@H](CC(=O)[O-])C[N+](C)(C)C [Acetyl L-carnitine 2 g, acetyl L-carnitine]	17.2 ± 3.5 IIEF 15 Score	3.9 ± 1.1 IIEF 15 score	4.0 ± 0.9 IIEF 15 score	4.0 ± 1.1 IIEF 15 score	11.3 ± 3.8 IIEF 15 Score	2.9 ± 1.0 IIEF 15 score	3.2 ± 1.1 IIEF 15 score	3.1 ± 1.1 IIEF 15 score	4.1 ± 1.0 IIEF 15 score	1.2 ± 0.5 IIEF 15 score	0.9 ± 0.4 IIEF 15 score	1.9 ± 0.6 IIEF 15 score	3.2 ± 1.1 IIEF 15 score	1.0 ± 0.4 IIEF 15 score	0.8 ± 0.6 IIEF 15 score	1.8 ± 0.8 IIEF 15 score	79.0 ± 12.3 min	70.8 ± 14.9 min	38.2 ± 5.7 min	37.7 ± 8.8 min	–
CCC(=O)O[C@H](CC(=O)[O-])C[N+](C)(C)C [Propionyl L-carnitine 2 g, propionyl L-carnitine]	18.1 ± 3.2 IIEF 15 Score	4.1 ± 0.9 IIEF 15 score	4.1 ± 1.1 IIEF 15 score	3.9 ± 1.1 IIEF 15 score	12.2 ± 3.9 IIEF 15 Score	2.9 ± 1.6 IIEF 15 score	3.0 ± 1.1 IIEF 15 score	3.2 ± 1.2 IIEF 15 score	4.0 ± 1.1 IIEF 15 score	1.4 ± 0.5 IIEF 15 score	1.0 ± 0.3 IIEF 15 score	1.9 ± 0.6 IIEF 15 score	3.3 ± 1.1 IIEF 15 score	1.3 ± 0.5 IIEF 15 score	0.7 ± 0.3 IIEF 15 score	1.7 ± 0.4 IIEF 15 score	77.1 ± 16.1 min	68.2 ± 13.5 min	36.4 ± 5.3 min	35.0 ± 9.1 min	–
CCCc1nn(C)c2c(=O)[nH]c(-c3cc(S(=O)(=O)N4CCN(C)CC4)ccc3OCC)nc12 [Sildenafil 100 mg, sildenafil]	21.7 ± 6.8 IIEF 15 Score	5.4 ± 2.7 IIEF 15 score	5.9 ± 2.9 IIEF 15 score	4.8 ± 2.5 IIEF 15 score	11.9 ± 4.0 IIEF 15 Score	2.7 ± 1.0 IIEF 15 score	3.0 ± 0.9 IIEF 15 score	3.1 ± 1.1 IIEF 15 score	9.2 ± 1.9 IIEF 15 score	2.4 ± 2.0 IIEF 15 score	2.2 ± 0.9 IIEF 15 score	2.9 ± 1.6 IIEF 15 score	3.8 ± 2.9 IIEF 15 score	1.1 ± 0.8 IIEF 15 score	0.9 ± 0.6 IIEF 15 score	1.3 ± 0.8 IIEF 15 score	85.9 ± 14.3 min	70.4 ± 13.2 min	39.1 ± 7.9 min	37.1 ± 8.5 min	Patients with recovery of sexual function [5]: approximately 15%; Patients with recovery of sexual function [6]: approximately 45%
